Literature values in patent publication US8637672B2 (Deciphera Pharmaceuticals, LLC, priority 2010, dated 2014).
pIC50: −log10 of the molar value.

Molecular target: VEGFR-2 (KDR kinase) (Homo sapiens, UniProt P35968, DEL940-989/E990V)
Details: values published in the '188/'556 applications; cited from earlier work

VEGFR-2 (KDR kinase), sequence (P35968 with tags, fused parts or gaps DEL940-989/E990V): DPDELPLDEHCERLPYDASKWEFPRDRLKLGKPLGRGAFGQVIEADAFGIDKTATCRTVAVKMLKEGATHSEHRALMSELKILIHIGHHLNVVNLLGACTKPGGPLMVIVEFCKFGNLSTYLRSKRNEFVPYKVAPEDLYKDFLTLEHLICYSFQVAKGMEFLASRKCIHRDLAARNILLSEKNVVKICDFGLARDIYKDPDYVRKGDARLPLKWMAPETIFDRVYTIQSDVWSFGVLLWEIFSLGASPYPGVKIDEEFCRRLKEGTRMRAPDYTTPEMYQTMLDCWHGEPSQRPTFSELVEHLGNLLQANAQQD

With CN1CCN(C2CCN(C(=O)Nc3cc(Oc4ccc(NC(=O)C5(C(=O)Nc6ccc(F)cc6)CC5)c(F)c4)ccn3)CC2)CC1 [Compound F] as the compound, how does the pIC50 read?
Its pIC50 is 6.62.
